These results are taken from patent US20100068184A1, “LIVING BODY HEALING ACCELERATOR” (AUREO CO., LTD., priority 2006, published 2010).

Test [1] deals with sarcoma. Nature of the test: Sarcoma-implanted mice: change in tumor volume. It counts as in vivo. The conditions noted are these: 5-FU 20 mg/kg/day oral in drinking water (group A), vs control group. The protocol: The above result obviously indicates the characteristics of the treatment with an anticancer drug, and in this type of treatment, the anticancer drug can suppress growth of a tumor, but normal cells are damaged by toxicity of the anticancer drug. This negative aspect spoils the positive result of the treatment with an anticancer drug. […] The dose of 2 g/kg/day corresponds to 30 mg/kg/day in administration with respect to the solid content (1.5%).

The subject of test [2] is leukemia-originated tumor cell P388. In words: Anti-leukemia test (survival rate). The conditions noted are these: group A, 5-FU 2.0 mg/kg oral, 40 days after implantation. It counts as in vivo, mice. How it is done: The test was carried out according to the ordinary method by using mice each with the leukemia-originated tumor cell P388 implanted therein and also by comparing survival rates of the mice after the test samples were administered. Just after the tumor was implanted, each test sample was orally administered by mixing the sample in water in a bottle for drinking water and making the mice freely drink the water. […] 10 mice were used for one test sample group.

Test [3] concerns mouse carrying diabetes caused by streptozotocin. Nature of the test: Test for accelerating normalization of a blood glucose level. The conditions noted are these: 200 mg/kg intraperitoneal (positive control group). It counts as in vivo, mice. The protocol: The test was performed by using mice, in each of which a diabetes was induced by streptozotocin, and also by comparing blood glucose levels before and after administration of test samples. In Table 3, the “normal group” indicates a blood glucose level in the normal state where treatment with streptozotocin is not performed. On the other hand, the “negative control group” indicates a blood glucose level in a mouse in which diabetes was generated by being subjected to treatment with streptozotocin. The “positive control group” indicates a blood glucose level when tolbutamide which was an accelerator of insulin secretion (200 mg/kg) was administered to a mouse carrying diabetes caused by streptozotocin. The “test A group” and “test B group” each indicates a blood glucose level when each of the Aureobasidium culture solution (2 g/kg and 10 g/kg) was administered to a mouse carrying diabetes caused by streptozotocin. It is to be noted that each sample was intrapenitoreally administered.
FIG. 6 is plotted with the ordinate axis indicating a blood glucose level and with the abscissa axis indicating treatment performed to each group of the tested mice. A left bar in each group represents an average value of blood glucose levels before administration of the test sample, while a right bar represent an average value of blood glucose levels after administration of the test sample.

As for `O=c1[nH]cc(F)c(=O)[nH]1` [5-FU, 5-fluorouracil], the “volume of the tumor” value in test [1] is on record as “significantly restrained”. The survival rate in test [2] was 80%.

In the case of `CCCCNC(=O)NS(=O)(=O)c1ccc(C)cc1` [tolbutamide], the “descent percentage of blood glucose level” value in test [3] is listed as 17.4%.
